In PMC12612047 (Nature Communications, 2025):

System: CLMB-FLAG S-acylation in HEK293 Flp-In TReX cells
Experiment: Metabolic pulse-chase labeling assay of dynamic CLMB S-acylation
Assay type: cell-based
Settings: 30-min chase

CCCCCCCCCC[C@@H]1C(=O)O[C@H]1CCc1ccc(OC)c(OC)c1 [PalmB, palmostatin B]
increase of palmitate incorporation into CLMB (17-ODYA to L-AHA ratio), PalmB vs DMSO: ~ 3 fold
